Data published in US20190224343A1, “CLEAVABLE COATING MATERIAL HAVING MICROBIAL FUNCTIONALITY” (ORIGINAL G B.V., priority 2012, published 2019).

System: Staphylococcus aureus (clinical isolate)
Assay: Fluorescence imaging of coated orthopaedic plates, screws and catheters implanted in a human cadaver ankle after incubation with S. aureus isolate or NaCl
Details: implants incubated with S. aureus, imaged 24 hours after implantation, excitation 710 nm, emission 800 nm
From the text: Orthopaedic plates, screws and catheters were coated with the polymer coating with compositions according to step (g). For example a polymer coating 1 g (i) was coated onto orthopaedic plates, screws and catheters in a continuous process.
First a solution of the polymer prepared in Example 1 g (i) was made by dissolving the polymer coating in water and then the plate and catheter were drawn through the solution of the polymer coating at a rate of 1 to 2 meters/second into an infrared dying oven of approximately 1 meter in length at about 100° C. The objects were completely covered indicating the application of a substantially uniform coating. This process was done according to the standard procedures in U.S. Pat. No. 7,442,205, Stents and methods for preparing stents from wires having hydrogel coating layers thereon. […]
Imaging of the objects implanted according to example 6 was performed 24 hours after implantation using an intra-operative clinical multispectral fluorescence camera (T3-imaging system, SurgOptix BV, Groningen, The Netherlands) and the IVIS Spectrum (excitation: 710 nm, emission: 800 nm, acquisition time 5 s, binning 4, F-stop 2, FOV 21.2).
The results obtained from the IVIS Spectrum and IVIS Lumina II were analyzed with Living Image 4.2. […] Signal intensity was determined by drawing regions of interests (ROI's) and measuring average counts in these regions. […]

CC1(C)C(=CC=C2CCCC(C=CC3=[N+](CCCCCC(=O)[O-])c4ccc(S(=O)(=O)[O-])cc4C3(C)C)=C2Oc2ccc(S(=O)(=O)[O-])cc2)N(CCCCS(=O)(=O)[O-])c2ccc(S(=O)(=O)[O-])cc21.[Na+].[Na+].[Na+].[Na+] [IRDye 800CW]
near infrared signal (net counts, background corrected): 1×10^5±4.2×10^4 counts
